The numbers were not newly measured in patent publication US7205293B2, “Benodiazepine spirohydantoin CGRP receptor antagonists” (Merck & Co., Inc., priority 2003, dated 2007), which cites them from elsewhere.

No end group written: not given here.

In series [1] the test system is facial blood flow. The settings on record: marmoset, electrical stimulation of the trigeminal ganglion.
The test system of series [2] is middle meningeal artery diameter. To be noted: rats, electrical stimulation of the dura mater, prior administration.
Series [3] has as its system facial blood flow. To be noted: rat, trigeminal ganglion stimulation.

For the compound `NCCCC[C@H](NC(=O)[C@@H](Cc1cc(Br)c(O)c(Br)c1)NC(=O)N1CCC(N2Cc3ccccc3NC2=O)CC1)C(=O)N1CCN(c2ccncc2)CC1` [BIBN4096BS], in the series on facial blood flow [1], the “effect on increase in facial blood flow” value is given as “blocked”.

Take “CGRP(8–37): a peptide CGRP antagonist (VTHRLAGLLSRSGGVVKNNFVPTNVGSKAF; ends and bridges not checked; UniProt P06881 90-119, looked up, fragment)”: the “effect on increase of middle meningeal artery diameter” value in series [2] is given as “blocked”. For the same compound, the “effect on increase of facial blood flow” value in the series on facial blood flow [3] is “inhibited”.
